Like-named read-outs stand apart in the source and are kept apart here. No end group written: not given here.
Tests used:
[1] = cited from earlier work
[2] = rats; cited from earlier work
[3] = three classical tests of rodent analgesia (hot plate, paw pressure, tail flick); type: in vivo; conditions: paw pressure and tail flick tests (FIG. 4)
calcitonin receptor = biological target: T1, calcitonin receptor (Homo sapiens, UniProt P30988); assay: in vitro receptor binding, displacement of 125-I calcitonin
T1 sequence (P30988 25-474): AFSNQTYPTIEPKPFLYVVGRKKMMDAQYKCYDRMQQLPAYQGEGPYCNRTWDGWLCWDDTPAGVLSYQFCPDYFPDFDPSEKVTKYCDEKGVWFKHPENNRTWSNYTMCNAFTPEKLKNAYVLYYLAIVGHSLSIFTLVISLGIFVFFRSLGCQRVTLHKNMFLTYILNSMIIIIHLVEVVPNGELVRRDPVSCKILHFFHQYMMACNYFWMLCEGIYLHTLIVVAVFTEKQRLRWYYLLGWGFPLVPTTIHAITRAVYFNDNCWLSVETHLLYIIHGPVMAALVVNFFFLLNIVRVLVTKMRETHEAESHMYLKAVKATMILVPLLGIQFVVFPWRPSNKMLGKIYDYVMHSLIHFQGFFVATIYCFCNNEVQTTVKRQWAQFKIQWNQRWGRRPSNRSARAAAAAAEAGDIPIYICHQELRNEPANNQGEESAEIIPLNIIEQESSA

bone = assay: uptake of calcium into bone; conditions: under the conditions tested
Source text: (§1) Studies of analgesia in monkeys is underway and following animal toxicity human trials should be undertaken. […] We would expect that this peptide, like other peptide analogs of naturally occurring modulatory substances, would be potent in quite low (milligram) doses in humans and should be able to alleviate quite severe pain even in these low doses. [drawing 1] R1, R2 =OH: Cholic Acid 89.010a R1 =H, R2 =OH: Chenodeoxycholic Acid 89.010b R1 =OH, R2 =H: Deoxycholic Acid [drawing 2] PEPTIDE-Pro-Arg-Thr-Asn-Thr-Gly-Ser-Gly-Thr-Pro-amide.

[4] = analgesia after subcutaneous injection (tail-flick and hot plate tests); type: in vivo, rodent
[5] = observation of rodent behavior, righting reflex, inclined plane; type: in vivo
Source text: as §1

[6] = biological target: T2, 69 Kd receptor molecule (calcitonin receptor) (Homo sapiens, UniProt P30988); assay: crosslinking / SDS-PAGE in vitro receptor binding
T2 sequence (P30988 25-474): T1 sequence (P30988 25-474)

[7] = periaqueductal gray administration; cited from earlier work

Compound: Calcitonin
- penetration into the brain ([1]; human, in vivo): does not penetrate into the brain
- side effects ([1]; human, in vivo): No important side effects
- analgesic activity ([1]; terminal cancer patients, injection into the subarachnoid space): extremely potent analgesic
- analgesic activity [2]: extremely potent analgesic

Compound: Pro-Arg-Thr-Asn-Thr-Gly-Ser-Gly-Thr-Pro-NH2 (PRTNTGSGTP-NH2) [PD89.010b, modified calcitonin decapeptide]
- analgesic responses [3]: significant and profound analgesic responses
- in vitro receptor binding as human calcitonin analog (calcitonin receptor; displacement of 125-I human calcitonin (FIG. 2A)): potent
- in vitro receptor binding as salmon calcitonin analog (calcitonin receptor; displacement of 125I salmon calcitonin (FIG. 2B)): weak
- uptake of calcium into bone (bone): does not appear to enhance
- onset of analgesia compared with morphine [4]: much more rapid onset of analgesia
- analgesia, tail-flick test ([4]; one quarter the molar equivalent of morphine (FIG. 5A)): profound and long lived analgesia
- analgesia, hot plate test ([4]; one quarter the molar equivalent of morphine (FIG. 5B)): profound and long lived analgesia
- analgesia at two hours, the last time point tested [4]: still is showing significant analgesia
- behavior and balance on an inclined plane ([5]; in vivo): remained unchanged
- righting reflex ([5]; in vivo): remained unchanged
- behavioral incapacitation effects ([5]; trained observers of rodent behavior): no obvious behavioral incapacitation effects
- displacement of iodinated salmon calcitonin from the 69 Kd receptor molecule ([6]; at 1 μM (FIG. 3A)): completely displaces
- displacement of iodinated human calcitonin from the 69 Kd receptor molecule ([6]; at 1 μM (FIG. 3B)): completely displaces

Compound: CN1CC[C@]23c4c5ccc(O)c4O[C@H]2[C@@H](O)C=C[C@H]3[C@H]1C5 [morphine, reference compound]
- analgesia at two hours, the last time point tested [4]: has already returned to baseline

Compound: CC(C)C[C@H](NC(=O)[C@H](CCCCN)NC(=O)CNC(=O)[C@H](CC(C)C)NC(=O)[C@@H](NC(=O)[C@@H]1CSSC[C@H](N)C(=O)N[C@@H](CO)C(=O)N[C@@H](CC(N)=O)C(=O)N[C@@H](CC(C)C)C(=O)N[C@@H](CO)C(=O)N[C@@H]([C@@H](C)O)C(=O)N1)C(C)C)C(=O)N[C@@H](CO)C(=O)N[C@@H](CCC(N)=O)C(=O)N[C@@H](CCC(=O)O)C(=O)N[C@@H](CC(C)C)C(=O)N[C@@H](Cc1c[nH]cn1)C(=O)N[C@@H](CCCCN)C(=O)N[C@@H](CC(C)C)C(=O)N[C@@H](CCC(N)=O)C(=O)N[C@H](C(=O)N[C@@H](Cc1ccc(O)cc1)C(=O)N1CCC[C@H]1C(=O)N[C@@H](CCCNC(=N)N)C(=O)N[C@H](C(=O)N[C@@H](CC(N)=O)C(=O)N[C@H](C(=O)NCC(=O)N[C@@H](CO)C(=O)NCC(=O)N[C@H](C(=O)N1CCC[C@H]1C(N)=O)[C@@H](C)O)[C@@H](C)O)[C@@H](C)O)[C@@H](C)O [salmon calcitonin, reference compound]
- uptake of calcium into bone (bone): profound response

Compound: CC(C)C[C@H](NC(=O)[C@H](Cc1ccccc1)NC(=O)CNC(=O)CNC(=O)[C@@H](N)Cc1ccc(O)cc1)C(=O)O [enkephalin]
- analgesia [7]: weak and transient
